A melting point compilation (Tetko et al.; mined from patent text by program, amines drawn as free bases though some values may be those of a salt)

melting point | SMILES
238 to 244 °C | O=C1C2CCC(N1c1cccs1)n1c(=O)n(-c3ccccc3)c(=O)n12 (centres undefined)
64.8 to 66 °C | CCc1cc(CC)nc(Sc2ccnc3cc(Cl)ccc23)n1
195 to 196 °C | CCOC(=O)CN(CCN(CCN1CC(=O)OC(=O)C1)CC(=O)O)CC(=O)O
> 285 °C | O=C(NN=Cc1ccccc1O)c1cc2ccccc2cc1O
100 to 101 °C | COC(=O)c1cc(-c2ncnc(C(F)F)c2Cl)c(F)cc1Cl
164 to 165 °C | CCOC(=O)C(=CC=C(C)C=CC=C(C)C=CC1=C(C)CCCC1(C)C)CC
166 to 168 °C | CC1(C)CCCC2(C)CC12/C=C/C(=O)N1CCN(C(N)=O)CC1 (centres undefined)
142 to 144 °C | C[C@@H]1C[C@H](C)CN(C(=O)[C@@H]2Cc3cc(Br)ccc3N2c2ncccn2)C1
228 to 229 °C | Cc1ccc(-c2[nH]c(-c3cccc4ccccc34)nc2C(=O)Nc2nccs2)cc1
59 to 60 °C | CCOC(=O)C1C(=O)C=C(OC(C)OCC)CC1c1ccc(C)cc1 (centres undefined)
213 to 214 °C | CCc1nc2c(N)nc3cc(Oc4ccc(C(=O)OC)cn4)ccc3c2s1
196 °C | Cc1ccnc(C(=O)c2[nH]c3ccc(Cl)cc3c2CC(=O)NCCO)c1
189 °C | OC1(C2CCN(Cc3ccccc3)CC2)c2ccsc2CCn2ccnc21 (centres undefined)
110 to 111 °C | Cn1c(=O)c2c(ncn2CC(O)Cc2noc(CCN3CCCCC3)n2)n(C)c1=O (centres undefined)
195 to 197 °C | COn1c(C(C)(C)C)nc2c(N)nc3ccccc3c21
198 °C | CC(=O)n1ccc2c1CCn1ccnc1C2=C1CCN(C)CC1
277 to 281 °C | CC(C)(CO)n1cnc2c(N)nc3ccccc3c21
> 250 °C | COc1cc2cc(C(=O)O)cc(-c3ccnc(Cl)c3)c2cc1OC
123 to 124 °C | Cn1ccnc1Sc1c(N)cccc1Cl
156 to 158 °C | O=C(OC1COC(OC(=O)C2CCCCC2)CO1)C1CCCCC1 (centres undefined)
161 to 163 °C | CS(=O)(=O)N(Cl)C(=O)c1cc(Oc2ccc(Cl)cc2Cl)ccc1[N+](=O)[O-]
146 to 147 °C | COc1ccc2[nH]c(CC(C)C)c(C=O)c2c1
167 to 170 °C | Oc1noc2ccc(Oc3ccc(C(F)(F)F)cc3Cl)cc12
46 to 47 °C | O=[N+]([O-])c1cc(Cl)c2c(c1)C(F)(C(F)(F)F)C(F)(F)O2 (centres undefined)
167 to 168 °C | c1ccc(C(OC2CCN(CCCNc3ccc4nncn4n3)CC2)c2ccccc2)cc1
55 °C | CSc1cncc(Oc2ccc(Cl)c(Cl)c2)c1

melting point | SMILES
112 to 115 °C | COc1ccc2cc([C@H](C)C(=O)OCCS(=O)CCOC(=O)OC(C)O[N+](=O)[O-])ccc2c1 (some centres undefined)
113 to 114 °C | CSC(Oc1cc(Cl)cc(Cl)c1)C(=O)NC(C)(C)C#CCCCC#N (centres undefined)
256 to 258 °C | CCOC(=O)c1ncc2[nH]c3ccc(N)cc3c2n1
121 °C | Nc1ccc(Sc2ccccn2)cn1
140 to 145 °C | O=C(C1=C(c2ccccc2)c2ccccc2S1=O)c1ccc(O)cc1 (centres undefined)
175 to 176 °C | CC(=O)N[C@@H](CSc1ccccc1[N+](=O)[O-])C(=O)O
89 °C | CC1CCN(c2ccc(N)cc2C(O)c2ccc(Cl)cc2)CC1 (centres undefined)
> 300 °C | O=c1ccn(-c2cc3[nH]c(=O)c(=O)[nH]c3cc2F)cc1
58 to 59 °C | C=CC[C@H](NS(=O)(=O)c1ccc(OC)cc1)C(=O)OC(C)(C)C
135 °C | COC(=O)C(c1ccc(Br)cc1)(c1ccc(Br)cc1)c1ncc[nH]1
74 to 78 °C | O=C(Nc1cccc(F)c1)c1ccccn1
68 to 70 °C | CSc1ccc(C(=O)CC(=O)C(F)F)cc1
254 to 255 °C | O=C1CCC2=C1C(c1cc(Br)cs1)C1=C(CCS1)N2 (centres undefined)
56 to 57 °C | CC(=O)Sc1ccc(I)cc1
254 to 256 °C | Clc1nc(Cl)nc(N2CCc3ccccc32)n1
120 °C | N#Cc1ccc(C(=O)C=Cc2ccccc2)cc1
118 to 119 °C | Cc1ccc(Oc2ccc(C#N)cc2)c(O)c1
> 270 °C | O=C(Nc1cccc([N+](=O)[O-])c1)c1ccccc1SSc1ccccc1C(=O)Nc1cccc([N+](=O)[O-])c1
119 to 121 °C | CCCC1=C(C(=O)OCC)C(c2ccccc2Cl)c2cn(C(=O)c3ccccc3)nc2N1 (centres undefined)
82 to 86 °C | CC(C)[C@@H](C(=O)NCCCC(c1ccc(F)cc1)c1ccc(F)cc1)N(C)C1CCCCC1
76.5 to 79 °C | CCc1cc2c(Sc3ccccn3)ncnc2s1
133 to 135 °C | COCOCC#Cc1nc(-c2ccc(=O)n(C(C)C)n2)c(-c2ccccc2)nc1N
220 °C | Cc1ccc2[nH]c3c(c2c1)CC(C)n1c-3nc2c(c1=O)CCCC2 (centres undefined)
< 50 °C | c1cc2sccc2cn1
134 to 136 °C | COc1cc2ccccc2cc1N(C)C(=O)N1CCN(c2cc(C)cc(C)c2)CC1
198 to 200 °C | O=C(Nc1ccccc1)Nc1ccnc(O)c1

melting point | SMILES
246 to 247 °C | CC1CCC(=NNc2ccccc2)c2ncc(C(N)=O)c(=O)n21 (centres undefined)
111 to 113 °C | CCCCC(C)OC(=O)Nc1ccc(-c2ncn(-c3ccc(OC(F)(F)F)cc3)n2)cc1 (centres undefined)
59 to 61 °C | COC(=O)CNC(=O)c1ncccc1O
80 to 81 °C | Cc1cc(O)c(S(=O)CCC(C)C)c(=O)o1 (centres undefined)
102 to 104 °C | CCOc1ccc(S(=O)(=O)N(Cc2ccc(C(=O)OC)cc2)[C@@H](CC)c2ccccc2)cc1
160 to 162 °C | CCc1cc(NC2=NCCN2C(C)=O)n(C)n1
168 to 169 °C | O=C(Nc1ccc2c(c1)c1ccccc1n2CCO)c1ccccc1Cl
148 to 150 °C | COCC(=O)OC1(C(=O)COC(=O)C(C)C)CCC2C3CC(C)C4=CC(=O)C=CC4(C)C3C(O)CC21C (centres undefined)
217 to 218 °C | COC(=O)CC1NC(=O)C(Cc2ccccc2)NC1=O (centres undefined)
216 to 220 °C | Cc1c(-c2ccc(C(C)C)cc2)oc2c(C(=O)O)cccc2c1=O
256 to 258 °C | O=C(CCc1c(C=C2C(=O)Nc3ccccc32)[nH]c2c1CCCC2)NCCN1CCOCC1
288 to 290 °C | CC(=NNc1ccc(C2=NNC(=O)CC2)cc1)c1ccc(C#N)cc1
110 to 112 °C | Cc1c2n(c(=O)c3c(O)cccc13)CCCS2
42 °C | CNCCc1ccc2[nH]nc(S(=O)(=O)c3ccccc3)c2c1
60 to 69 °C | CC(Cc1c[nH]c2ccccc12)(NCc1cc2ccccc2o1)C(=O)NCc1cccc(O)c1 (centres undefined)
120 to 121 °C | NC(=O)c1c(O)cccc1OCCBr
152 to 153 °C | COc1ccc(Cc2ccc(C(=O)O)cc2)cc1
180 °C | NNC(=O)C[C@H](O)c1ccccc1
112 to 114 °C | O=C1CCC(c2c[nH]c3ccc(F)cc23)CC1
138 to 140 °C | CCSc1nc2c(C)sc(C(=O)O)c2n1Cc1ccc(-c2ccccc2-c2nnnn2C(c2ccccc2)(c2ccccc2)c2ccccc2)cc1
164 to 165 °C | O=c1oc(-c2snnc2C2CC2)nc2ccccc12
115 to 117 °C | O=C(C1=Cc2ccccc2C1)c1ccc(OC(F)(F)F)cc1
86 to 89 °C | CC(=O)OCc1ccc(N(c2ccccc2)c2ccccc2)cc1
180 to 182 °C | CN(C)[C@H]1CC[C@@H](n2cc(-c3ccc(Oc4ccccc4)cc3)c3c(N)ncnc32)CC1
87 to 89 °C | COc1ccc(C(=O)CC(=O)C(F)(F)F)cc1OC
196 to 198 °C | N#Cc1c(N2CCc3ccccc3CC2)nc(CO)[nH]c1=O

melting point | SMILES
86 to 92 °C | CN(CCCNc1ncc(Cc2ccc(Cl)c(Cl)c2)c(=O)[nH]1)c1ccccn1
120 to 123 °C | CCCCc1nc(Cl)c(C=O)n1Cc1ccc(-c2nc3ccccn3c2C(=O)O)cc1
128 to 130 °C | C=C(C)C(=O)N[C@@H](CCC(=O)O)C(=O)O
184 to 187 °C | O=C1CC[N+]([O-])=C(c2ccccc2Cl)c2cc(Cl)ccc21
142 to 145 °C | O=c1c2cccnc2c(-c2cccc(Cl)c2)cn1Cc1cccs1
215 to 216 °C | COc1cc(COc2nn(-c3ccccc3)cc2/C=C2\SC(=O)N(C)C2=O)ccc1OCc1nc(-c2ccco2)oc1C
153 °C | COC(=O)c1ccccc1S(=O)(=O)NC(=O)n1nc(OCC(F)(F)F)n(C)c1=O
136 to 137 °C | O=C1CCC(c2ccc(CCCCN3CCN(c4ccc(F)cc4)CC3)cc2)N1 (centres undefined)
157 °C | COc1ccc2c(c1)CCc1cc(Nc3ccc(F)cc3F)ccc1C2=O
234 °C | O=C(Nc1cc(C2CC2)n[nH]1)c1ccccc1
133 to 135 °C | O=[N+]([O-])c1ccc2c(c1)OC(COc1nccnc1N1CCNCC1)CO2 (centres undefined)
177 to 179 °C | Cc1cc2c(c(C(=O)O)c1)OCC2
196 to 198 °C | O=C1c2ccccc2C(c2ccc(Cl)cc2)(c2c(O)cc(O)cc2O)N1Cc1ccc([N+](=O)[O-])cc1 (centres undefined)
182 to 183 °C | CC(C)(Cc1ccccc1)C(NC(=O)c1ccc(Cl)cc1)NC(=NC#N)Nc1cccnc1 (centres undefined)
145 to 147 °C | Cn1nc(C(F)(F)F)n(-c2ccc(N)cc2Cl)c1=S
156 to 158 °C | CCNC(=O)c1ccc(Nc2nc(OCC3CCCCC3)c3nc[nH]c3n2)cc1
138 to 139 °C | CC(=O)Nc1ccc2c(c1)OCO2
134 to 136 °C | COC(=O)Cn1c(Cc2ccccc2)ccc(N)c1=O
159 to 161 °C | CC(C)c1ccc(N(C)C)c(C(C)C)c1NC(=O)CN1CCN(CCSc2nc3ccccc3o2)CC1
50 to 51 °C | O=C(Nc1ccc(OCCN2CCOCC2)c2ccccc12)c1cc(N2CCOCC2)ncn1
139 to 140 °C | OCCCc1oc(-n2cncn2)nc1-c1ccc(Cl)cc1
267 to 270 °C | COc1cc2ncnc(N3CCN(C(=O)Nc4cc(Cl)nc(Cl)c4)CC3)c2cc1OC
173 °C | Cn1c([N+](=O)[O-])cnc1C=NN1CCN(CCN2CCOCC2)C1=O

SMILES | melting point
O=C(CF)Cc1ccc(Cl)cc1Cl | 48 to 52 °C
O=C(CBr)Nc1ccc(I)cc1C(=O)c1ccccc1Cl | 150 to 152 °C
O=C1CC(c2cccnc2)=NN1c1ccc(O)cc1 | > 250 °C
